Experimental data taken from ChEMBL document CHEMBL5291721, “A preclinical secondary pharmacology resource illuminates target-adverse drug reaction associations of marketed drugs” (Nat Commun, 2023).

Tests used:
Adenosine receptor A3 = target: T1, Adenosine receptor A3 (Homo sapiens, UniProt P0DMS8)
T1 sequence (P0DMS8 whole entry): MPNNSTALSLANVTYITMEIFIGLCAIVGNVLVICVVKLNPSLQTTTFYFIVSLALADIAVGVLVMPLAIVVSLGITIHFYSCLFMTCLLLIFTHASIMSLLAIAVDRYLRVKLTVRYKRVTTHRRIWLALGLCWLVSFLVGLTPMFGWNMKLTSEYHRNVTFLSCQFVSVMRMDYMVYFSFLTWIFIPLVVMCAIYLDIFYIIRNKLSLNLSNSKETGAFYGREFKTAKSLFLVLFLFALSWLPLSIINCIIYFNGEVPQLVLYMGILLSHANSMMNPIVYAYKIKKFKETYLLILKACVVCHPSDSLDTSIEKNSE

Motilin receptor = Motilin receptor (Homo sapiens, UniProt O43193)
Motilin receptor, sequence (O43193 whole entry): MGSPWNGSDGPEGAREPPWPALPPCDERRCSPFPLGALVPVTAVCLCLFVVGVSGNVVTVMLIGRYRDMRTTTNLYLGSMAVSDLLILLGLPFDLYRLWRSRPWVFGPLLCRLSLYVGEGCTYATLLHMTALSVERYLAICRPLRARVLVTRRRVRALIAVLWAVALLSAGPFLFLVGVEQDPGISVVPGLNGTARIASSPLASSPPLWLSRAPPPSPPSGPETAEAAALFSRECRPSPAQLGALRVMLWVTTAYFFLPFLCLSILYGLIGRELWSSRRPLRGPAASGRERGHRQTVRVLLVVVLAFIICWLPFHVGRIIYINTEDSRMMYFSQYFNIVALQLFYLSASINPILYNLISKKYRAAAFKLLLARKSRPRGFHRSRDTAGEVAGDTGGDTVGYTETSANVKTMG

[1] = target: Neuronal acetylcholine receptor subunit alpha-4 (Homo sapiens, UniProt P43681)
Neuronal acetylcholine receptor subunit alpha-4, sequence (P43681 whole entry): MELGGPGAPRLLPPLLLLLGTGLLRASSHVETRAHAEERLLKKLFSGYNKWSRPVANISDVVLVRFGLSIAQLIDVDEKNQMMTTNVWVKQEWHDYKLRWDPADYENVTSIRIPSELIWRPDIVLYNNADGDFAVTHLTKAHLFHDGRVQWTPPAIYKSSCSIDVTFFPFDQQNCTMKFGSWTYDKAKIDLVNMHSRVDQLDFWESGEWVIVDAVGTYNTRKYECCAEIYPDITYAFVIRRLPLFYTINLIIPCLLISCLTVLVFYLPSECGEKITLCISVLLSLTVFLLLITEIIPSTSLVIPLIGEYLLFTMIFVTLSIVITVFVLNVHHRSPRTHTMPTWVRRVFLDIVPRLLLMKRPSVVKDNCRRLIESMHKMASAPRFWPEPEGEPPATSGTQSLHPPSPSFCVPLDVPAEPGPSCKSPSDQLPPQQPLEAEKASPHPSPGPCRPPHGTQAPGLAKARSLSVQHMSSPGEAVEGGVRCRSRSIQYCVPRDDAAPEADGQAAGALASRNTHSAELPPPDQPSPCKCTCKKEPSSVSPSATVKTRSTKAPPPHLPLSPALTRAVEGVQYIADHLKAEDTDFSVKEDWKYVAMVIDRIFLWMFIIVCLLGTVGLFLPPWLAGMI

Histamine H1 receptor = Histamine H1 receptor (Homo sapiens, UniProt P35367)
Histamine H1 receptor, sequence (P35367 whole entry): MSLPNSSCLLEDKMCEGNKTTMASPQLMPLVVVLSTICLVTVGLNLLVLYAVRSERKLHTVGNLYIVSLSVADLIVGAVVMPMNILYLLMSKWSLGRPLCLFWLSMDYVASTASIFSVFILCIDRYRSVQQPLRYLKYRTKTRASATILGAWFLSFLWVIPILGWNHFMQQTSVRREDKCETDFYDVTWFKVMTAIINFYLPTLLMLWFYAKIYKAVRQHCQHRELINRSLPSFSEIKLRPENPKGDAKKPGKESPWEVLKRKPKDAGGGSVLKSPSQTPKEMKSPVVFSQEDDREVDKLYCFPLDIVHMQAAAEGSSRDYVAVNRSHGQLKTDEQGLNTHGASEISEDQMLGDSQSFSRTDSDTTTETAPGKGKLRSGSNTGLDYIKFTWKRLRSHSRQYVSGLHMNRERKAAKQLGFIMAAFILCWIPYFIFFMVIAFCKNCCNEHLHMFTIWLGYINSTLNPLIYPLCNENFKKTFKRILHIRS

[2] = target: T2, Gastrin/cholecystokinin type B receptor (Homo sapiens, UniProt P32239)
T2 sequence (P32239 whole entry): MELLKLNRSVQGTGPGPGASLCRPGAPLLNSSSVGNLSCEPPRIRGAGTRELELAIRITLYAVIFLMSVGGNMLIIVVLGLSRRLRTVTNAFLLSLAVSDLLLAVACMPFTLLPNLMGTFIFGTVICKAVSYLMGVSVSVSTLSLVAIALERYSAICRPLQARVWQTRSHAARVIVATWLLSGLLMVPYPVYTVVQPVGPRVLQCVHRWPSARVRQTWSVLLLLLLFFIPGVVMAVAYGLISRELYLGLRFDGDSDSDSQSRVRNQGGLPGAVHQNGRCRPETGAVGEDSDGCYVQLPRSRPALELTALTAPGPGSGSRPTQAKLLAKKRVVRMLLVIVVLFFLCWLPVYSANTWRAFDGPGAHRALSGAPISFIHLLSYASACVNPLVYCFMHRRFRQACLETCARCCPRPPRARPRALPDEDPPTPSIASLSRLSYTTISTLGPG

[3] = target: Sodium-dependent noradrenaline transporter (Homo sapiens, UniProt P23975)
Sodium-dependent noradrenaline transporter, sequence (P23975 whole entry): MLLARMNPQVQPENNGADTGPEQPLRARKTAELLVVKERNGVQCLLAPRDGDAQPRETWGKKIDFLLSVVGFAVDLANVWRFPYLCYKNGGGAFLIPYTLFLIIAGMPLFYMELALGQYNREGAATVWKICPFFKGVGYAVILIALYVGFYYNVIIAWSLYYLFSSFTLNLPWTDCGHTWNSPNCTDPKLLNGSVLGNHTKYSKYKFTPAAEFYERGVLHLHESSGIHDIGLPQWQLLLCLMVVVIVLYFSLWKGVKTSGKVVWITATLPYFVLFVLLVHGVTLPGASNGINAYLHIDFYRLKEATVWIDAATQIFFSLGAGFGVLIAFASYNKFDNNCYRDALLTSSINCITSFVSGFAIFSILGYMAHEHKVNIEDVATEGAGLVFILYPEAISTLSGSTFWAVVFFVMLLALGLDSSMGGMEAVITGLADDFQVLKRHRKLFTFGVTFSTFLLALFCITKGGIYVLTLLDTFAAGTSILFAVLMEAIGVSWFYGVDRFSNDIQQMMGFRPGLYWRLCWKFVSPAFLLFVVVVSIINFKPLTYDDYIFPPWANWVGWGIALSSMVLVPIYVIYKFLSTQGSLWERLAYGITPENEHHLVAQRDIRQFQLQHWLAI

[4] = target: Kappa-type opioid receptor (Homo sapiens, UniProt P41145)
Kappa-type opioid receptor, sequence (P41145 whole entry): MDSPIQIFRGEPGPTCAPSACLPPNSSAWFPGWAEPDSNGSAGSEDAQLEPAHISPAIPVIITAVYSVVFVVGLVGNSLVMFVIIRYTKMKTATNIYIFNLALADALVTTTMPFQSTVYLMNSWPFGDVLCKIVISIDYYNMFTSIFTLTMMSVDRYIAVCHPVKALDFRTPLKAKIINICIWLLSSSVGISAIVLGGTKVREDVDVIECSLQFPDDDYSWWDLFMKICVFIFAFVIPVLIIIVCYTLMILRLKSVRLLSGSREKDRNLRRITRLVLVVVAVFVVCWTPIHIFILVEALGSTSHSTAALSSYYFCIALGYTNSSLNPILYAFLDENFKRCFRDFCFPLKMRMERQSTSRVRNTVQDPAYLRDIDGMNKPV

B2 bradykinin receptor = target: T3, B2 bradykinin receptor (Homo sapiens, UniProt P30411)
T3 sequence (P30411 whole entry): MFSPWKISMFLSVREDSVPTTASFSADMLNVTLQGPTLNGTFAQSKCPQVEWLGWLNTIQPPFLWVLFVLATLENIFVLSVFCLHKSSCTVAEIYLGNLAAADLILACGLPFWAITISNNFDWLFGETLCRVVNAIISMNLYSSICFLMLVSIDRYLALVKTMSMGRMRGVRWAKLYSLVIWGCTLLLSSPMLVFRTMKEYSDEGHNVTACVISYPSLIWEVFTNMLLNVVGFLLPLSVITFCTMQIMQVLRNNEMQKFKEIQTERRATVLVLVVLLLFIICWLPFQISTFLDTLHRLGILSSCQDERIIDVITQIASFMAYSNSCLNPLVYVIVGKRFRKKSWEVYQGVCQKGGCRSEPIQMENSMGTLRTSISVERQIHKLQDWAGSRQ

[5] = target: Beta-2 adrenergic receptor (Homo sapiens, UniProt P07550)
Beta-2 adrenergic receptor, sequence (P07550 whole entry): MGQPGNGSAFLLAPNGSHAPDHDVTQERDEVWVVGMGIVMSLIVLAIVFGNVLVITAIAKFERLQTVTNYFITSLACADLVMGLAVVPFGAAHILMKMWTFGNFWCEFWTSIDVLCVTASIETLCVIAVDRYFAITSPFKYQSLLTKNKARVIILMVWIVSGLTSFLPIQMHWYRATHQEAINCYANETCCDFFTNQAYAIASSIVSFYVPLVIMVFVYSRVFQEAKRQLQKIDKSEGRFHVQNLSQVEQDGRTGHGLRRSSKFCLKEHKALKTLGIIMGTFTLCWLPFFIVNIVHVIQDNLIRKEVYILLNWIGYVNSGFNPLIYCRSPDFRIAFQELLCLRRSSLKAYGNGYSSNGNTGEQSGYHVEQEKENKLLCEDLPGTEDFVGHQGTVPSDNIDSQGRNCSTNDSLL

[6] = target: Voltage-dependent L-type calcium channel subunit alpha-1C (Rattus norvegicus, UniProt P22002); type: functional
[7] = target: T4, Muscarinic acetylcholine receptor M2 (Homo sapiens, UniProt P08172); type: functional, cell-based
T4 sequence (P08172 whole entry): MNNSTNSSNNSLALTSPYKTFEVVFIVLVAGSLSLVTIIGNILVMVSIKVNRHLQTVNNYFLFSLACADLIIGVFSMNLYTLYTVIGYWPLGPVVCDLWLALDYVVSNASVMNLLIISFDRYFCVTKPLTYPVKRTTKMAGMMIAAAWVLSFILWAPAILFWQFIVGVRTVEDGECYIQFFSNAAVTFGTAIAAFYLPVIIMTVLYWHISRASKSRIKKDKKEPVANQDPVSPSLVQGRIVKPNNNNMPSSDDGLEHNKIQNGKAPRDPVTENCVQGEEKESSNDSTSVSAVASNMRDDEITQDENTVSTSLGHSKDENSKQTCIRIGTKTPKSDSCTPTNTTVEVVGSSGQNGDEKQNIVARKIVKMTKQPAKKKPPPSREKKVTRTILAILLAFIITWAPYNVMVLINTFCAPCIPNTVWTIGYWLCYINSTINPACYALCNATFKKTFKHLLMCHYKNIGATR
Note: assay procedure not described here.

Row | Molecule | AC50 (Adenosine receptor A3) | AC50 (Motilin receptor) | AC50 [1] | AC50 (Histamine H1 receptor) | AC50 [2] | AC50 [3] | AC50 [4] | AC50 (B2 bradykinin receptor) | AC50 [5] | AC50 [6] | AC50 [7]
1 | CC1(C)C(/C=C/C=C/C=C/C=C2\N(CCCCS(=O)(=O)O)c3ccc4ccccc4c3C2(C)C)=[N+](CCCCS(=O)(=O)[O-])c2ccc3ccccc3c21 [INDOCYANINE GREEN ACID FORM] | 3 µM | 23 µM | > 30 µM | 8.3 µM | 9.2 µM | 5.2 µM | 13 µM | 26 µM | – | – | –
2 | Nc1nc2c(c(=O)[nH]1)N(C=O)C(CNc1ccc(C(=O)N[C@@H](CCC(=O)O)C(=O)O)cc1)CN2 (some centres undefined) [LEUCOVORIN] | > 30 µM | > 30 µM | > 30 µM | – | > 30 µM | > 30 µM | > 30 µM | > 30 µM | > 30 µM | > 30 µM | > 30 µM
3 | CC(C)OC(=O)C(C(=O)OC(C)C)=C1SC=CS1 [MALOTILATE] | > 30 µM | > 30 µM | > 30 µM | > 30 µM | > 30 µM | > 30 µM | > 30 µM | > 30 µM | > 30 µM | > 30 µM | > 30 µM
4 | C[n+]1ccccc1/C=N/O [PRALIDOXIME] | – | – | – | – | – | – | > 30 µM | – | – | – | –
5 | CN1CCN(c2c(F)cc3c(=O)c(C(=O)O)cn4c3c2SCC4)CC1 [RUFLOXACIN] | > 30 µM | > 30 µM | > 30 µM | > 30 µM | > 30 µM | – | > 30 µM | > 30 µM | – | – | > 30 µM
6 | CC(C)CC(N(C)C)C1(c2ccc(Cl)cc2)CCC1 (centres undefined) [SIBUTRAMINE] | > 30 µM | > 10 µM | > 10 µM | – | > 30 µM | – | – | > 30 µM | > 10 µM | > 10 µM | 19 µM
7 | COc1c(O[C@@H]2O[C@H](CO)[C@@H](O)[C@H](O)[C@H]2O)cc2c(c1OC)-c1ccc(SC)c(=O)cc1[C@@H](NC(C)=O)CC2 [THIOCOLCHICOSIDE] | > 30 µM | > 30 µM | > 30 µM | > 30 µM | > 30 µM | > 30 µM | > 30 µM | > 30 µM | – | > 30 µM | > 30 µM
8 | CC(C)(C)NC[C@H](O)COc1nsnc1N1CCOCC1 [TIMOLOL] | > 30 µM | > 30 µM | > 30 µM | – | > 30 µM | > 30 µM | > 30 µM | > 30 µM | – | > 30 µM | > 30 µM
9 | COc1cc2nccc(Oc3ccc(NC(=O)Nc4cc(C)on4)c(Cl)c3)c2cc1OC [TIVOZANIB] | > 3 µM | – | > 3 µM | > 30 µM | – | > 3 µM | – | – | > 3 µM | – | > 30 µM
10 | CN1[C@@H]2CC[C@H]1C[C@@H](OC(=O)c1c[nH]c3ccccc13)C2 [TROPISETRON] | > 30 µM | > 30 µM | 5.2 µM | – | > 30 µM | – | > 30 µM | > 30 µM | – | > 30 µM | > 30 µM
11 | COc1ccc(C(CN(C)C)C2(O)CCCCC2)cc1 (centres undefined) [VENLAFAXINE] | > 30 µM | > 10 µM | > 10 µM | – | > 30 µM | – | > 10 µM | > 30 µM | > 10 µM | – | > 10 µM
12 | COLISTIN | – | – | – | > 30 µM | – | – | > 30 µM | – | – | – | –
